6 molecules from patent US12410171B2, “Tropomyosin receptor kinase (TRK) degradation compounds and methods of use” (Cullgen (Shanghai), Inc., priority 2020, dated 2025) can be followed below.

One experiment has as its system KM12 cells. Put plainly: KM12 cell viability (CellTiter-Glo). To be noted: Homo sapiens, 72 h, KM12 cell viability, CellTiter-Glo, read-out: IC50. Type of experiment: cell-based. A digest of the protocol:
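KM12 cells seeded at 5000 per well in RPMI 1640 + 10% FBS and exposed 3 days to serial dilutions (11-point 3-fold, 8-point 3-fold from 1000 nM, or 12-point 2-fold). Viability by CellTiter-Glo; IC50 from least-squares nonlinear regression.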
(Cellular ATP, detected with luciferase, serves as a proxy for viable cell number.)

The next experiment has as its target T1, TPM3-TRKA fusion protein (Homo sapiens, UniProt P04629).
T1 construct: The resulted chimeric proteins always retain the kinase domain of TRK proteins; TPM3 (fusion partner, N-terminal part of tropomyosin alpha-3, P06753); endogenous in cells; host or cells: KM12 colon cancer cells; the other entry of the earlier key: TPM3 (P06753, Tropomyosin alpha-3 chain)
Briefly: TPM3-TRKA fusion protein levels in KM12 cells (Western blot). Type of experiment: cell-based. To be noted: 16 h, read-out: Degradation (at 10 nM). A digest of the protocol: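 KM12 colon cancer cells were treated with DMSO or compounds at 0.1–100 nM, 0.4–30 nM or other stated concentrations for 4, 8–16 or 16 h. RIPA lysates were BCA-normalized and resolved by SDS-PAGE. TPM3-TRKA was detected by chemiluminescent Western blot, with bands quantified by densitometry.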
Background: Immunoblotting shows a protein as a band on a membrane.

Setting [1] is: 11-point 3-fold serial dilution, 3 days.
Where [2] appears, read: TPM3-TRKA degradation in KM12 cells at 10 nM.
The mark [3] stands for this setting: TPM3-TRKA degradation in KM12 cells at 10 nM compound, category of percentage degradation.

Structures are written as SMILES. Read-outs that look alike come from different tables or passages of the source. Bounds are passed on as bounds.

T1 sequence (P04629 with tags, fused parts or gaps): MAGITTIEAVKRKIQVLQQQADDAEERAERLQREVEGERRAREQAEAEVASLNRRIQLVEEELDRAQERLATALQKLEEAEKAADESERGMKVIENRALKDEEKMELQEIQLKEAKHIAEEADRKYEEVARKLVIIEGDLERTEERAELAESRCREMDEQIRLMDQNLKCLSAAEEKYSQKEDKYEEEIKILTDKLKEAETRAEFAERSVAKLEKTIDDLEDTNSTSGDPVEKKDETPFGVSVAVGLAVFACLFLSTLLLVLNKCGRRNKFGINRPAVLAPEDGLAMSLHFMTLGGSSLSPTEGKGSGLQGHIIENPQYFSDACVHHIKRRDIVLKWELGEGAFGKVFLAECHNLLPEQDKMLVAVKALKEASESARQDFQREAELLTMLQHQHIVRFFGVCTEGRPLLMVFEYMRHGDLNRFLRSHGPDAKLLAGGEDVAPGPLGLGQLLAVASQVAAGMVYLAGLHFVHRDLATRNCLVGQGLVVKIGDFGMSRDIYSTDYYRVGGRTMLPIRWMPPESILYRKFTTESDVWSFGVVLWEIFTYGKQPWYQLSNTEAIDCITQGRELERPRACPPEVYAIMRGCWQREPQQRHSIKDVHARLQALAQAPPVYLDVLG

As to `COc1ccc(COc2ccc(Cn3c(N)nc4cc(-c5cnn(CC(=O)NCCCCCCCCNc6cccc7c6C(=O)N(C6CCC(=O)NC6=O)C7=O)c5)cnc43)cc2OC)cc1` (stereo not drawn) [CPD-501, 2-(4-(2-amino-3-(3-methoxy-4-((4-methoxybenzyl)oxy)benzyl)-3H-imidazo[4,5-b]pyridin-6-yl)-1H-pyrazol-1-yl)-N-(8-((2-(2,6-dioxopiperidin-3-yl)-1,3-dioxoisoindolin-4-yl)amino)octyl)acetamide], the IC50 – broadly, the point on the concentration scale where inhibition reaches its midpoint – in the experiment on KM12 cells (setting [1]) stood at 13.2 nM. Also, the percent degradation of TPM3-TRKA protein at 0.01 µM on TPM3-TRKA fusion protein (setting [2]) was above 80%.

Take `COc1ccc(COc2ccc(Cn3c(N)nc4cc(-c5cnn(CC(=O)NCCCCCCCC(=O)N[C@H](C(=O)N6C[C@H](O)C[C@H]6C(=O)NCc6ccc(-c7scnc7C)cc6)C(C)(C)C)c5)cnc43)cc2OC)cc1` [CPD-510, (2S,4R)-1-((S)-2-(8-(2-(4-(2-amino-3-(3-methoxy-4-((4-methoxybenzyl)oxy)benzyl)-3H-imidazo[4,5-b]pyridin-6-yl)-1H-pyrazol-1-yl)acetamido)octanamido)-3,3-dimethylbutanoyl)-4-hydroxy-N-(4-(4-methylthiazol-5-yl)benzyl)pyrrolidine-2-carboxamide]: the IC50 in the experiment with KM12 cells (setting [1]) came out at 58.8 nM. At TPM3-TRKA fusion protein (setting [2]), the percent degradation of TPM3-TRKA protein at 0.01 µM is below 50%.

With `COc1ccc(COc2ccc(Cn3c(N)nc4cc(-c5cnn(CC(=O)NCCCCCCCCCC(=O)N[C@H](C(=O)N6C[C@H](O)C[C@H]6C(=O)NCc6ccc(-c7scnc7C)cc6)C(C)(C)C)c5)cnc43)cc2OC)cc1` [CPD-511, (2S,4R)-1-((S)-2-(10-(2-(4-(2-amino-3-(3-methoxy-4-((4-methoxybenzyl)oxy)benzyl)-3H-imidazo[4,5-b]505yridine-6-yl)-1H-pyrazol-1-yl)acetamido)decanamido)-3,3-dimethylbutanoyl)-4-hydroxy-N-(4-(4-methylthiazol-5-yl)benzyl)pyrrolidine-2-carboxamide], the IC50 in the experiment with KM12 cells (setting [1]) turned out to be 85.8 nM. Further, the percent degradation of TPM3-TRKA protein at 0.01 µM at TPM3-TRKA fusion protein (setting [2]) was below 50%.

In the case of `O=C(CN1CCN(c2cccc(-c3cnc4ccc(N5CCC[C@@H]5c5cccc(F)c5)nn34)n2)CC1)NCCOCCNc1cccc2c1C(=O)N(C1CCC(=O)NC1=O)C2=O` (stereo partly drawn) [TR-106, N-(2-(2-((2-(2,6-dioxopiperidin-3-yl)-1,3-dioxoisoindolin-4-yl)amino)ethoxy)ethyl)-2-(4-(6-(6-((R)-2-(3-fluorophenyl)pyrrolidin-1-yl)imidazo[1,2-b]pyridazin-3-yl)pyridin-2-yl)piperazin-1-yl)acetamide], the IC50 in the experiment with KM12 cells (three days treatment) is 3.8 nM. In addition, the percent degradation of TPM3-TRKA protein at 0.01 µM at TPM3-TRKA fusion protein (setting [3]) lay in the range of 50 to 80%.

For `O=C1CCC(N2C(=O)c3ccc(NCCCCC(=O)N4CCN(c5cccc(-c6cnc7ccc(N8CCC[C@@H]8c8cccc(F)c8)nn67)n5)CC4)cc3C2=O)C(=O)N1` (stereo partly drawn) [TR-115, 2-(2,6-Dioxopiperidin-3-yl)-5-((5-(4-(6-(6-((R)-2-(3-fluorophenyl)pyrrolidin-1-yl)imidazo[1,2-b]pyridazin-3-yl)pyridin-2-yl)piperazin-1-yl)-5-oxopentyl)amino) isoindoline-1,3-dione], the IC50 with KM12 cells (three days treatment) was found to be 0.9 nM. Besides, the percent degradation of TPM3-TRKA protein at 0.01 µM on TPM3-TRKA fusion protein (setting [3]) was above 80%.

`O=C(CN1CCN(c2cccc(-c3cnc4ccc(N5CCC[C@@H]5c5cccc(F)c5)nn34)n2)CC1)NCCNc1ccc2c(c1)C(=O)N(C1CCC(=O)NC1=O)C2=O` (stereo partly drawn) [TR-130, N-(2-((2-(2,6-dioxopiperidin-3-yl)-1,3-dioxoisoindolin-5-yl]amino)ethyl)-2-(4˜ (6˜ (6-((R)-2-(3-fluorophenyl)pyrrolidin-1-yl)imidazo[1,2-b]pyridazin-3-yl)pyridin-2-yl)piperazin-1-yl)acetamide]: the IC50 in the experiment with KM12 cells (three days treatment) was 0.9 nM. In addition, the percent degradation of TPM3-TRKA protein at 0.01 µM at TPM3-TRKA fusion protein (setting [3]) was above 80%.
